# Data reported in patent publication US20210085711A1 (Japan Tobacco Inc., priority 2017, published 2021).
# Columns and labels:
# [1] = system: patients with hypermenorrhea and/or patients with hypermenorrhea-associated gynecologic diseases (iron-deficiency anemia patients); experiment: Phase II clinical trial of JTT-751: serum iron level; format: in vivo, human
# Method: (§1) This test was a three-stage safety and efficacy clinical trial at multi-facilities. The first stage was a pre-observation period (Day −40 to Day −1), the second stage was an administration period (Day 1 to Day 48) (efficacy and safety evaluation period), and the third stage was a post-observation period (Day 49 to Day 63) (efficacy and safety evaluation period). The safety evaluation and efficacy evaluation were performed by multi-facility collaboration, placebo control, random allocation, double-blind trial, and parallel group comparison test.
# (§2) (1) Japanese patients who are 20 or more and less than 65 years old at the time of agreement and can visit an outpatient clinic (2) Patients who have an Hb value (measured using HemoCue® Hb 201 DM analyzer in the institute of clinical practice) of 7.0 g/dL or more and less than 11.0 g/dL on both the observation start date and Week 0, and the difference between the two days is 1.0 g/dL or less (3) Patients with a TIBC of 360 μg/dL or more or a serum ferritin value of less than 12 ng/mL on the observation start date
# (§3) The administration period of the trial drug is seven weeks which starts from the next day of the Week 0 visit to the day before the Week 7 visit, provided that the trial drug is not taken on the scheduled Week 3 visit.
# (§4) (2) Subsidiary evaluation items 1) Erythrocyte-related examination values and amount of change from Week 0 at each observation date 2) Iron-related test values and amount of change from Week 0 at each observation date 3) Achievement rate of target Hb value (female; 12.0 g/dL or more, male; 13.0 g/dL or more) at each observation date 4) Achievement rate of 1.0 g/dL or more and achievement rate of 2.0 g/dL or more in Hb value improvement from Week 0 at each observation date 5) Average daily change of Hb value from Week 0 to each observation date
# (§5) The blood hemoglobin value (Hb), the serum iron level, the serum ferritin value, the total iron-binding capacity (TIBC) and the transferrin saturation rate (TSAT), and the mean corpuscular volume (MCV) were each examined at the observation start date, Week 0, Week 3, Week 7, the end of administration and the consultation at nine weeks after Week 0; the hepcidin concentration (Hepcidin 25) and the serum soluble transferrin receptor concentration (sTfR) were each examined on Week 0, Week 3 and Week 7 and at the end of administration; and the C-terminal FGF23 value (cFGF23) and the intact FGF23 value (iFGF23) were each examined on Week 0 and Week 7 and at the end of administration.
# [2] = system: patients with hypermenorrhea and/or patients with hypermenorrhea-associated gynecologic diseases (iron-deficiency anemia patients); experiment: Phase II clinical trial of JTT-751: serum ferritin value; format: in vivo, human
# Method: as §1, §2, §3, §4, §5
# [3] = 250 mg/day, 9 weeks after Week 0
# [4] = 250 mg/day, End of administration
# [5] = 250 mg/day, Week 3 (Week 0 not given)
# [6] = 500 mg/day, 9 weeks after Week 0
# [7] = 500 mg/day, End of administration
# [8] = 500 mg/day, Week 3 (Week 0 not given)
# [9] = 1000 mg/day, 9 weeks after Week 0
# [10] = 1000 mg/day, End of administration
# [11] = 1000 mg/day, Week 3 (Week 0 not given)
# [12] = 1500 mg/day, 9 weeks after Week 0
# [13] = 1500 mg/day, End of administration
# [14] = 1500 mg/day, Week 3 (Week 0 not given)
substance,measurement,setting,value
Ferric citrate [JTT-751],"Serum iron, Mean",[1]; [3],14.3 µg/dL
same,"Serum iron, Median",[1]; [3],13.0 µg/dL
same,"Serum iron, Mean",[1]; [4],30.4 µg/dL
same,"Serum iron, Median",[1]; [4],25.0 µg/dL
same,"Serum iron, Mean",[1]; [5],19.9 µg/dL
same,"Serum iron, Median",[1]; [5],18.5 µg/dL
same,"Serum iron, Mean","[1]; 250 mg/day, Week 7",30.4 µg/dL
same,"Serum iron, Median","[1]; 250 mg/day, Week 7",25.0 µg/dL
same,"Serum iron, Mean",[1]; [6],24.6 µg/dL
same,"Serum iron, Median",[1]; [6],18.0 µg/dL
same,"Serum iron, Mean",[1]; [7],40.1 µg/dL
same,"Serum iron, Median",[1]; [7],42.5 µg/dL
same,"Serum iron, Mean",[1]; [8],29.6 µg/dL
same,"Serum iron, Median",[1]; [8],13.5 µg/dL
same,"Serum iron, Mean","[1]; 500 mg/day, Week 7",40.1 µg/dL
same,"Serum iron, Median","[1]; 500 mg/day, Week 7",42.5 µg/dL
same,serum iron level on Week 3,"[1]; 1000 mg administration group and 1500 mg administration group, Week 3",improved to a normal value
same,"Serum iron, Mean",[1]; [9],40.3 µg/dL
same,"Serum iron, Median",[1]; [9],38.0 µg/dL
same,"Serum iron, Mean",[1]; [10],48.3 µg/dL
same,"Serum iron, Median",[1]; [10],52.0 µg/dL
same,"Serum iron, Mean",[1]; [11],55.5 µg/dL
same,"Serum iron, Median",[1]; [11],36.0 µg/dL
same,"Serum iron, Mean","[1]; 1000 mg/day, Week 7",48.3 µg/dL
same,"Serum iron, Median","[1]; 1000 mg/day, Week 7",52.0 µg/dL
same,"Serum iron, Mean",[1]; [12],38.1 µg/dL
same,"Serum iron, Median",[1]; [12],34.0 µg/dL
same,"Serum iron, Mean",[1]; [13],54.4 µg/dL
same,"Serum iron, Median",[1]; [13],46.0 µg/dL
same,"Serum iron, Mean",[1]; [14],53.1 µg/dL
same,"Serum iron, Median",[1]; [14],27.0 µg/dL
same,"Serum iron, Mean","[1]; 1500 mg/day, Week 7",54.4 µg/dL
same,"Serum iron, Median","[1]; 1500 mg/day, Week 7",46.0 µg/dL
same,"serum iron level, increased to a normal value","[1]; continuous administration, Week 0, Week 3 and Week 7",about 50 μg/dL
same,"Ferritin, Mean",[2]; [3],2.88 ng/mL
same,"Ferritin, Median",[2]; [3],2.60 ng/mL
same,"Ferritin, Mean",[2]; [4],11.38 ng/mL
same,"Ferritin, Median",[2]; [4],11.45 ng/mL
same,"Ferritin, Mean",[2]; [5],11.16 ng/mL
same,"Ferritin, Median",[2]; [5],7.70 ng/mL
same,"Ferritin, Mean","[2]; 250 mg/day, Week 7",11.38 ng/mL
same,"Ferritin, Median","[2]; 250 mg/day, Week 7",11.45 ng/mL
same,"Ferritin, Mean",[2]; [6],4.28 ng/mL
same,"Ferritin, Median",[2]; [6],3.60 ng/mL
same,"Ferritin, Mean",[2]; [7],16.12 ng/mL
same,"Ferritin, Median",[2]; [7],14.30 ng/mL
same,"Ferritin, Mean",[2]; [8],15.26 ng/mL
same,"Ferritin, Median",[2]; [8],12.40 ng/mL
same,"Ferritin, Mean","[2]; 500 mg/day, Week 7",16.12 ng/mL
same,"Ferritin, Median","[2]; 500 mg/day, Week 7",14.30 ng/mL
same,"Ferritin, Mean",[2]; [9],7.51 ng/mL
same,"Ferritin, Median",[2]; [9],7.20 ng/mL
same,"Ferritin, Mean",[2]; [10],17.02 ng/mL
same,"Ferritin, Median",[2]; [10],16.30 ng/mL
same,"Ferritin, Mean",[2]; [11],26.96 ng/mL
same,"Ferritin, Median",[2]; [11],23.20 ng/mL
same,"Ferritin, Mean","[2]; 1000 mg/day, Week 7",17.02 ng/mL
same,"Ferritin, Median","[2]; 1000 mg/day, Week 7",16.30 ng/mL
same,"Ferritin, Mean",[2]; [12],5.83 ng/mL
same,"Ferritin, Median",[2]; [12],5.35 ng/mL
same,"Ferritin, Mean",[2]; [13],17.38 ng/mL
same,"Ferritin, Median",[2]; [13],16.60 ng/mL
same,"Ferritin, Mean",[2]; [14],20.43 ng/mL
same,"Ferritin, Median",[2]; [14],22.20 ng/mL
same,"Ferritin, Mean","[2]; 1500 mg/day, Week 7",17.38 ng/mL
same,"Ferritin, Median","[2]; 1500 mg/day, Week 7",16.60 ng/mL
same,"serum ferritin value (printed: serum iron level), increased to a normal value",[2]; continuous administration from Week 0 to Week 3,12 to 30 ng/mL
